# Experimental data taken from patent US20050026223A1, “Method and compositions for increasing bone mass” (The Board of Trustees of the University of Arkansas, priority 1999, published 2005).
# Test system: osteoblastic cells derived from murine calvaria
# Test: Etoposide-induced apoptosis of osteoblastic cells derived from murine calvaria (trypan blue uptake)
# Format: cell-based
# Description: Osteoblastic cells derived from murine calvaria were pretreated with the sterols for 1 hour before the addition of the pro-apoptotic agent, etoposide. Apoptosis was determined after 6 hours by trypan blue uptake (Jilka et al, J. Bone and Min. Res. 13:793:802, 1998). * indicates p<0.05 versus etoposide alone, by analysis of variance (ANOVA) (Student-Newman-Keuls method).
# Osteoblastic cells derived from murine calvaria were pretreated for 1 hour with the pure receptor antagonist ICI182,780 (10^−7 M) before the addition of the test agents (10^−8 M). Apoptosis was induced and quantified as described in FIG. 3. * indicates p<0.05 versus etoposide alone, by ANOVA (Student-Newman-Keuls method).
# In this experiment, osteoblastic cells were derived from murine calvaria and were pretreated with the sterols for 1 hour before the addition of the pro-apoptotic agent, etoposide.
# In these experiments, cells were pretreated with the indicated concentrations of the various compounds for 1 hour, in the absence or presence of the androgen receptor antagonist flutamide, before the addition of the proapoptotic agent etoposide. Apoptosis was determined after 6 hours by trypan blue uptake as described in FIG. 3.
smiles,measurement,setting,value
C[C@@]12CCC[C@H]1[C@@H]1CCc3cc(O)ccc3[C@H]1CC2 [estratriene-3-ol],Inhibition of etoposide-induced osteoblast apoptosis,1 hour pretreatment before etoposide,inhibition of etoposide-induced osteoblastic cell apoptosis was demonstrated
same,"Anti-apoptotic effect on osteoblastic cells after ICI182,780","compound 10^−8 M, 1 h pretreatment with ICI182,780 10^−7 M",abrogated
